# Calls of active or inactive are those of the source. The rule behind the calls is not given here.
# Legend:
# [1] = target: Serine/threonine-protein kinase pim-1 (Homo sapiens, UniProt P11309); assay: Inhibition of PIM1 (unknown origin) assessed as reduction in BAD phosphorylation at Ser-112 residue by TR-FRET assay
# [2] = target: Serine/threonine-protein kinase pim-2 (Homo sapiens, UniProt Q9P1W9); assay: Inhibition of PIM2 (unknown origin) assessed as reduction in BAD phosphorylation at Ser-112 residue by TR-FRET assay
# [3] = Thermodynamic solubility in pH 7.4 solution; type: physicochemical; details: buffer; for solubility thermodynamic: read-out: Therm_solubility
# [4] = target: Serine/threonine-protein kinase PIM (Homo sapiens, UniProt P11309+Q9P1W9+Q86V86); assay: Inhibition of PIM in human KG1 cells assessed as reduction in pS6 level; type: cell-based
# KG-1 [5] = assay: Antiproliferative activity against human KG1 cells; type: functional, cell-based
# [6] = Permeability in human Caco2/TC7 cells at 5 uM; type: ADME, cell-based; details: for Papp at 5 µM: Caco-2, read-out: permeability
# [7] = Clearance in human liver microsomes assessed as drug extraction at 5 uM; type: ADME, Microsome; details: for hepatic extraction ratio at 5 µM: liver microsomes, read-out: CLH
# [8] = Clearance in mouse liver microsomes assessed as drug extraction at 5 uM; type: ADME, Microsome
# [9] = AUC (0 to infinity) in rat at 3 mg/kg, iv administered as single dose; type: ADME, organism-based; parameters: dose 3 mg/kg, route intravenous, time infinity; details: in vivo
# [10] = AUC (0 to infinity) in rat at 10 mg/kg, po administered as single dose; type: ADME, organism-based; parameters: dose 10 mg/kg, route oral, time infinity; details: in vivo
# [11] = Cmax in rat at 10 mg/kg, po administered as single dose; type: ADME, organism-based; parameters: dose 10 mg/kg, route oral; details: in vivo
# [12] = Half life in rat at 3 mg/kg, iv administered as single dose; type: ADME, organism-based; details: in vivo
# [13] = Half life in rat at 10 mg/kg, po administered as single dose; type: ADME, organism-based; details: in vivo
# [14] = Oral bioavailability in rat at 10 mg/kg administered as single dose; type: ADME, organism-based; details: in vivo
# [15] = Clearance in rat at 3 mg/kg, iv administered as single dose; type: ADME, organism-based; details: in vivo
# [16] = Volume of distribution at steady state in rat at 3 mg/kg, iv administered as single dose; type: ADME, organism-based; details: in vivo, read-out: Vdss
# [17] = target: Voltage-gated inwardly rectifying potassium channel KCNH2 (Homo sapiens, UniProt Q12809); assay: Inhibition of human ERG
# [18] = target: Glycogen synthase kinase-3 beta (Homo sapiens) (UniProt P49841); assay: Inhibition of GSK3beta (unknown origin) at 0.1 uM relative to control
# [19] = target: Cyclin-dependent kinase 5 (Homo sapiens) (UniProt Q00535); assay: Inhibition of CDK5 (unknown origin) at 0.1 uM relative to control
# [20] = target: Glycogen synthase kinase-3 alpha (Homo sapiens) (UniProt P49840); assay: Inhibition of GSK3alpha (unknown origin) at 0.1 uM relative to control
# [21] = target: Cyclin-dependent kinase 3 (Homo sapiens) (UniProt Q00526); assay: Inhibition of CDK3 (unknown origin) at 0.1 uM relative to control
# [22] = target: Cyclin-dependent kinase 2 (Homo sapiens) (UniProt P24941); assay: Inhibition of CDK2 (unknown origin) at 0.1 uM relative to control
# [23] = target: T1, Dual specificity tyrosine-phosphorylation-regulated kinase 3 (Homo sapiens) (UniProt O43781); assay: Inhibition of DYRK3 (unknown origin) at 0.1 uM relative to control
# T1 sequence (whole entry): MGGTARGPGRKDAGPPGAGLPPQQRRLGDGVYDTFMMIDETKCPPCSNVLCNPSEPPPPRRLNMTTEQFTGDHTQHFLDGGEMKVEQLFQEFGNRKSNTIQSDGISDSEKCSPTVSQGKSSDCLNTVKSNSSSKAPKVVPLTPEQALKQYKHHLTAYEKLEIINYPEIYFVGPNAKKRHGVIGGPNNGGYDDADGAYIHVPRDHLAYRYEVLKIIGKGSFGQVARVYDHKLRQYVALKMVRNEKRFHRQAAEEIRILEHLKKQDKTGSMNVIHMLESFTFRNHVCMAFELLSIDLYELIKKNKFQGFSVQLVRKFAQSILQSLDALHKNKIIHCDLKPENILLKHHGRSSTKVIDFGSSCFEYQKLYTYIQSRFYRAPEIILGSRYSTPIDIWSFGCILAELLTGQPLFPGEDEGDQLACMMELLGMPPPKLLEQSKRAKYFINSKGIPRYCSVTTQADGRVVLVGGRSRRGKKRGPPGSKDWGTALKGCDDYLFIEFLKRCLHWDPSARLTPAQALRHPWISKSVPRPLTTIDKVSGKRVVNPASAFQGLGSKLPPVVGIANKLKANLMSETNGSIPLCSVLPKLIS
# [24] = target: Ribosomal protein S6 kinase alpha-2 (Homo sapiens) (UniProt Q15349); assay: Inhibition of RSK3 (unknown origin) at 0.1 uM relative to control
# [25] = target: Cyclin-dependent kinase 1 (Homo sapiens) (UniProt P06493); assay: Inhibition of CDK1 (unknown origin) at 0.1 uM relative to control
# [26] = target: Glycogen synthase kinase-3 beta (Homo sapiens) (UniProt P49841); assay: Inhibition of GSK3beta (unknown origin) at 1 uM relative to control
# [27] = target: Cyclin-dependent kinase 5 (Homo sapiens) (UniProt Q00535); assay: Inhibition of CDK5 (unknown origin) at 1 uM relative to control
# [28] = target: Glycogen synthase kinase-3 alpha (Homo sapiens) (UniProt P49840); assay: Inhibition of GSK3alpha (unknown origin) at 1 uM relative to control
# [29] = target: Cyclin-dependent kinase 3 (Homo sapiens) (UniProt Q00526); assay: Inhibition of CDK3 (unknown origin) at 1 uM relative to control
# [30] = target: Cyclin-dependent kinase 2 (Homo sapiens) (UniProt P24941); assay: Inhibition of CDK2 (unknown origin) at 1 uM relative to control
# [31] = target: T1, Dual specificity tyrosine-phosphorylation-regulated kinase 3 (Homo sapiens); assay: Inhibition of DYRK3 (unknown origin) at 1 uM relative to control
# [32] = target: Ribosomal protein S6 kinase alpha-2 (Homo sapiens) (UniProt Q15349); assay: Inhibition of RSK3 (unknown origin) at 1 uM relative to control
# [33] = target: Cyclin-dependent kinase 1 (Homo sapiens) (UniProt P06493); assay: Inhibition of CDK1 (unknown origin) at 1 uM relative to control
# Mus musculus [34] = assay: In vivo inhibition of PIM in mouse xenografted with human KG1 cells assessed as reduction in phosphorylated BAD level at 25 mg/kg, po administered as single dose and measured at 8 hrs post dose relative to control; type: functional; details: KG-1, po
# Mus musculus [35] = assay: In vivo inhibition of PIM in mouse xenografted with human KG1 cells assessed as reduction in phosphorylated BAD level at 25 mg/kg, po administered as single dose and measured up to 24 hrs post dose relative to control; type: functional
# [36] = Drug uptake in tumor of mouse xenografted with human KG1 cells at 25 mg/kg, po administered as single dose and measured at 8 hrs post dose; type: ADME, organism-based, Neoplasm; details: read-out: Drug uptake
# [37] = Drug uptake in tumor of mouse xenografted with human KG1 cells at 25 mg/kg, po administered as single dose and measured at 24 hrs post dose; type: ADME, organism-based, Neoplasm; details: read-out: Drug uptake
# [38] = Plasma concentration in mouse xenografted with human KG1 cells at 25 mg/kg, po administered as single dose and measured at 8 hrs post dose; type: ADME, organism-based
# [39] = Plasma concentration in mouse xenografted with human KG1 cells at 25 mg/kg, po administered as single dose and measured at 24 hrs post dose; type: ADME, organism-based
# [40] = Protein binding in mouse plasma; type: ADME, cell-free; details: read-out: PPB (converted)
# [41] = Toxicity in nude mouse xenografted with human KG1 cells assessed as body weight loss at 12.5 to 50 mg/kg, po bid for 18 days relative to control; type: organism-based; details: in vivo, 432 h
# KG-1 [42] = assay: Antitumor activity against human KG1 cells xenografted in nude mouse assessed as tumor growth at 12.5 mg/kg, po bid for 18 days relative to control; type: functional
# KG-1 [43] = assay: Antitumor activity against human KG1 cells xenografted in nude mouse assessed as tumor growth at 25 mg/kg, po bid for 18 days relative to control; type: functional
# KG-1 [44] = assay: Antitumor activity against human KG1 cells xenografted in nude mouse assessed as tumor growth at 50 mg/kg, po bid for 18 days relative to control; type: functional
# [45] = Cmax in nude mouse xenografted with human KG1 cells at 12.5 mg/kg, po bid for 18 days measured at 8 hrs post last dose; type: ADME, organism-based; parameters: dose 12.5 mg/kg, route oral; details: in vivo
# [46] = Cmax in nude mouse xenografted with human KG1 cells at 25 mg/kg, po bid for 18 days measured at 8 hrs post last dose; type: ADME, organism-based; parameters: dose 25 mg/kg, route oral; details: in vivo
# [47] = Cmax in nude mouse xenografted with human KG1 cells at 50 mg/kg, po bid for 18 days measured at 8 hrs post last dose; type: ADME, organism-based; parameters: dose 50 mg/kg, route oral; details: in vivo
# [48] = Efflux ratio of permeability in human Caco2/TC7 cells at 5 uM; type: ADME, cell-based; details: Caco-2
# hERG (KCNH2) [49] = target: T2, hERG (KCNH2) (Homo sapiens, UniProt Q12809); assay: Inhibition of human ERG at 10 uM relative to control
# hERG (KCNH2) [50] = target: T2, hERG (KCNH2); assay: Inhibition of human ERG at 1 uM relative to control
compound,measurement,setting,value
NC(=O)c1cc(Cl)c2c(Cl)c(C#CC3CCCO3)n([C@H]3CCCNC3)c2n1 (stereo in doubt; 20b),IC50,[1],2.2 nM
same,Ki,[1],1.3 nM
same,IC50,[2],7.4 nM
same,Therm_solubility,[3],333 µM
same,EC50,[4],69 nM
same,EC50,KG-1 [5]; kg-1,91 nM
same,permeability,"[6]; caco2/tc7, 5 µM, 5 µM",33 ×10⁻⁷ cm/s
same,CLH,"[7]; microsomes, 5 µM",24%
same,CLH,"[8]; microsomes, 5 µM",37%
same,AUC(0-inf),[9],324 ng·h/mL
same,AUC(0-inf),[10],326 ng·h/mL
same,Cmax,[11],54 ng/mL
same,half-life,[12],139 min
same,half-life,[13],218 min
same,bioavailability,[14],30%
same,clearance,[15],150 mL/min/kg
same,Vd,[16],19.6 L/kg
COCCC#Cc1c(Cl)c2c(Cl)cc(C(N)=O)nc2n1[C@H]1CCCNC1,IC50,[1],0.8 nM
same,Ki,[1],0.4 nM
same,IC50,[2],5.1 nM
same,solubility thermodynamic,[3],86 µM
same,IC50,[17],3000 nM
same,EC50,[4],27 nM
same,EC50,"KG-1 [5]; Homo sapiens, KG-1",39 nM
same,Papp at 5 µM,[6],4.1 ×10⁻⁶ cm/s
same,hepatic extraction ratio at 5 µM,[7],0.23
same,hepatic extraction ratio at 5 µM,"[8]; liver microsomes, read-out: CLH",0.5
same,AUC(0-inf),[9],405 ng·h/mL
same,AUC(0-inf),[10],643 ng·h/mL
same,Cmax,[11],92 ng/mL
same,half-life,[12],165 min
same,half-life,[13],215 min
same,bioavailability,[14],46%
same,clearance,[15],113 mL/min/kg
same,Vd,[16],18.6 L/kg
same,inhibition,[18],48%
same,inhibition,[19],88%
same,inhibition,[20],23%
same,inhibition,[21],24%
same,inhibition,[22],26%
same,inhibition,[23],15%
same,inhibition,[24],20%
same,inhibition,[25],14%
same,inhibition,[26],90%
same,inhibition,[27],89%
same,inhibition,[28],81%
same,inhibition,[29],73%
same,inhibition,[30],71%
same,inhibition,[31],68%
same,inhibition,[32],54%
same,inhibition,[33],51%
same,inhibition in vivo at 25 mg/kg,Mus musculus [34],≤ 64%
same,inhibition in vivo at 25 mg/kg,"Mus musculus [35]; KG-1, po",56%
same,concentration at 8 h,[36],24 µM
same,concentration at 24 h,[37],7.9 µM
same,concentration at 8 h,[38],920 nM
same,concentration at 24 h,[39],60 nM
same,fraction unbound,[40],0.02
same,Activity,[41],< 10%
same,T/C,KG-1 [42],60%
same,T/C,KG-1 [43],56%
same,T/C,KG-1 [44],33%
same,Cmax,[45],140 nM
same,Cmax,[46],320 nM
same,Cmax,[47],520 nM
NC(=O)c1cc(Cl)c2c(Cl)c(C#CC3CC3)n([C@H]3CCCNC3)c2n1,IC50,[1],0.7 nM
same,IC50,[2],9 nM
same,solubility thermodynamic,[3],13 µM
same,EC50,[4],28 nM
same,EC50,"KG-1 [5]; Homo sapiens, KG-1",207 nM
same,Papp at 5 µM,[6],3 ×10⁻⁶ cm/s
same,efflux ratio at 5 µM,[48],2.5
same,inhibition at 10 µM,hERG (KCNH2) [49],97%
same,inhibition at 1 µM,hERG (KCNH2) [50],53%
same,hepatic extraction ratio at 5 µM,[7],0.21
same,inhibition,Mus musculus [35],Active

# Reference: ChEMBL document CHEMBL4371067, “Discovery of N-substituted 7-azaindoles as Pan-PIM kinases inhibitors - Lead optimization - Part III” (Bioorg Med Chem Lett, 2019)
